One block for each substance: values may come before it.
Key:
[1] = system: various cells; test: Cell attachment to peptide coated on plastic; assay type: cell-based
Method: (§1) A further aspect of the invention provides synthetic peptides from the deduced amino acid sequence of the cDNA sequence for the A chain. These synthetic peptides can be synthesized by any suitable method such as one previously used by our group (Graf et al (1987) Cell 48:989). A variety of synthetic peptides are tested for biological activity such as promoting cell adhesion, migration, growth and preventing invasion of tumor cells (see locations and sequences of the active peptides in FIG. 14 and Table III). […] A: increasing amounts of peptide were coated onto a 24 well dish in DMEM for 2 hours. The unbound peptide was removed and the wells were incubated with DMEM containing 3% BSA before the addition of cells. B and C: Morphological appearance of cells attached on peptide and laminin substrates. In the absence of peptides or laminin, few cells were attached. Table III is shown below.
(§2) This peptide is active with various cells and its activity can be equal to that of laminin itself in terms of the total number of cells that can attach to surfaces coated with the peptide. […] Table IV is shown below.

[2] = system: Human umbilical vein endothelial cells; test: Endothelial cell tube formation on reconstituted basement membrane; assay type: cell-based
Method: Human umbilical vein endothelial cells when coated on a reconstituted basement membrane substrate rapidly (by 12 hours) organize into capillary-like structures (see FIG. 18A). […] It may have a potential clinical use in blocking blood vessel formation as for example, during the vascularization of tumors and in diabetic retinopathy (ex diabetic retinopathy or Kaposi sarcoma). […] 18A: Morphology of cells. Cells were plated on a reconstituted basement membrane substrate and after 2 and 18 hours it is apparent that the cells line up into capillary-like structures. […] 18B: Adhesion to peptides. 18C: peptide inhibition of tube formation.

[3] = system: laminin-mediated cell adhesion; test: Blocking of laminin-mediated cell attachment by soluble peptide; assay type: cell-based; settings: laminin coated dish; peptide added with cells; one and a half hours
Method: Laminin was coated on the dish as described above, then peptide togehter with cells were added to the dishes and cell adhesion after one and a half hours was determined.

[4] = system: neural cell lines (PC-12, NG108-15) and primary cultures of neural cells; test: Neurite outgrowth / process formation on coated peptide; assay type: cell-based; settings: peptide coated on plastic dish
Method: In fact, laminin promotes regeneration faster and over greater distances than any other factor described to date. […] It is active in a dose-dependent manner and is active both with neural cell lines (PC-12 FIGS. 17A and B and NG108-15) and with primary cultures of neural cells both from the peripheral and the central nervous system. The processes formed appear identical to those observed with intact laminin (see FIG. 17A).
The assay was carried out in a similar manner to the cell adhesion assay. 17A: Morphology after 4 hours. 17B: Dose response curve showing number of processes formed. Cells were directly counted from at least 10 microscopic fields.

[5] = system: HT-1080 fibrosarcoma cells; test: Collagenase production (collagen IV degrading enzymes in conditioned medium); assay type: cell-based; settings: HT-1080 cells treated for 6 hours
Method: This enzyme is thought to be important in cancer where its production is correlated with the invasive and metastatic activity of malignant tumor cells. In fact, degradation of basement membranes by collagenase IV is a necessary step in the metastatic process. […] The cells were treated for 6 hours with various amounts of the peptide and then the conditional medium was assayed for the production of collagen IV degrading enzymes. The effect is dose-dependent and is not reproduced by any other peptide tested to date. The importance of localizing this activity to peptide PA22-2 is that it will now be possible to more precisely define the molecular events involved in the metastatic process. Competitive inhibitors of this activity can be readily designed by modification of the composition of the active peptide i.e. Dasmano acids, cyclic forms etc. There may also be situations where the production of the enzyme could be advantageous such as in speeding the migration of leukocytes to sites of infection.

[6] = Heparin binding
[7] = system: HT1080 (fibrosarcoma); test: Cell attachment and spreading on coated dish (Table IV); assay type: cell-based; settings: HT-1080
Method: as §1, §2

[8] = system: B16F10 (melanoma); test: as above; assay type: cell-based
Method: as §1, §2

[9] = system: cell migration; test: Cell migration; assay type: cell-based
[10] = system: B16F10 Melonoma Cells; test: Lung tumor formation after tail vein injection of B16F10 melanoma cells with peptide; assay type: in vivo, mice; settings: for Number of Tumors/animal: lung surface tumors after 3 weeks, no peptide: 26
From the text: It is well known that tumor cells must attach degrade, and migrate through basement membranes in order to spread to distant sites. Laminin is known to increase the metastic phenotype of tumor cells and the number of tumors formed in mice. Using a line of B16 melanoma cells which specifically colonize the lung when injected into mouse tail vein, we have studied the effect of peptide PA22-2 on the formation of lung tumors.
In these studies, various amounts of peptide PA22-2 are mixed with the B16F10 melanoma cells (5×10^4) and injected into mice via the tail vein. Eight mice are injected for each concentration of test peptide. After 2-3 weeks, the mice are sacrificed and the number of […] colonies on the lung surface are counted.
10^5 melanoma cells in a final volume of 0.2 ml of Dulbecco's
modification of Eagle's medium (DMEM) containing the indicated amount and
type of peptide were injected in the tail vein. Eight mice were in each
test group. After 3 weeks, the mice were sacrificed, lungs were removed.
The number of tumors on the surface of the lungs was determined by using
Each group contained 8 mice which were injected with […] B16F10 Melanoma cells via the tail vein in a final volume of 0.2 DMEM containing the designated amount of peptide. After three weeks, the animals were sacrificed and the number of colonies on the surface of the lungs was determined.

[11] = system: B16-F10 and PC12 cells; test: Cell growth; assay type: cell-based
[12] = system: cells in culture and tumor cells in vivo; test: Various biological activities with cells in culture and tumor cells in vivo (comparison of derivatives); settings: all presently found activities
[13] = system: endothelial cell binding to laminin; test: Competition with intact laminin for endothelial cell binding; assay type: cell-based; settings: endothelial cells
From the text: Many of the same cells which recognize peptide PA22-2 and YIGSR also recognize and bind to PA21 and PA26 but the degree of binding is quite different. […] Since the sequence of PA36 is unique to laminin, the response of endothelial cells to PA36 is likely to be specific to the peptide.

[14] = system: HUVEC (endothelia cell); test: Cell attachment and spreading on coated dish (Table IV); assay type: cell-based, Human; settings: endothelial cells
Method: as §1, §2

[15] = system: neural cell lines (PC-12, NG108-15) and primary cultures of neural cells; settings: background statement; cited from earlier work
[16] = system: HT-1080 fibrosarcoma cells; settings: background statement; cited from earlier work
[17] = system: EGF-like activity; settings: personal communication; cited from earlier work

Substance: XGQIKKSPAVKVTHFKG [pA31-1]
Cell adhesion / attachment to coated peptide [1]: active for cell attachment

Substance: XGQIKKSPAVKVT [pA31-2]
Cell adhesion / attachment to coated peptide [1]: has some cell attachment activity

Heparin binding [6]: promote activity to bind heparin
Substance: XSRARQAASIKVAVSADR [PA22-2]
Adhesion of HUVEC [2]: does not alter the adhesion of these cells | Formation of capillary-like structures (tube formation) ([2]; HUVEC on reconstituted basement membrane): block the formation of capillary-like structures | Blocking of laminin-mediated cell adhesion [3]: can complete (i.e. block) laminin-mediated cell adhesion | Cell adhesion / attachment to coated peptide [1]: promotes the adhesion of various epithelial cells in a rapid dose-dependent manner | Neurite outgrowth promoting activity [4]: mimics the neurite promoting activity of laminin | Production of collagenase [5]: increase in the production of collagenase to levels comparable to those observed with intact laminin | Spreading on substrates coated with the peptide [7]: spreading is not observed | Spreading on substrates coated with the peptide [8]: spreading is observed | Cell migration [9]: active | Number of Tumors/animal ([10]; 0.5 mg peptide injected with melanoma cells in tail vein): 44 | Number of Tumors/animal ([10]; 1 mg peptide injected with melanoma cells in tail vein): 53 | Increase in the number of lung tumors ([10]; 1 mg/mouse): two-fold increase | Cell growth [11]: stimulate growth

Substance: XRKQAASIKVAVS [PA22-3]
Activity relative to PA22-2 [12]: almost equally active

Substance: CSKCQAGTFALR [PA36]
Competition with intact laminin for endothelial cell binding to laminin [13]: effectively competes with intact laminin for endothelial cell binding to laminin | Endothelial cell adhesion to peptide [14]: specifically active with endothelial cells for cell adhesion

Substance: XIKVAVSADR [PA22-4]
Activity relative to PA22-2 [12]: almost equally active

Substance: Laminin: large glycoprotein localized to basement membranes, composed of three chains A, B1 and B2; prepared from EHS tumor
Neurite outgrowth promoting activity (background) [15]: very active in promoting neurite outgrowth | Collagenase production / release (background) [16]: induces the production of collagenase IV | EGF-like activity [17]: exert EGF-like growth factor activity

Substance: XFALRGDNPQG [PA26]
Cell adhesion / attachment to coated peptide [1]: support the attachment of many cells

— US5211657A, “Laminin a chain deduced amino acid sequence, expression vectors and active synthetic peptides” (The United States Government as represented by the …, priority 1988, dated 1993)
